Experimental data: patent US9045445B2, “Glycine transporter-1 inhibitors, methods of making them, and uses thereof” (Albany Molecular Research, Inc., priority 2010, dated 2015)
Where a name gives a salt, the structure may show the parent alone.

Columns and labels:
[1] = molecular target: T1, glycine transporter-1 (GlyT-1) (Homo sapiens, UniProt P48067); assay: [14C]glycine uptake assay in JAR cells endogenously expressing GlyT-1 (scintillation proximity); format: cell-based; details: JAR cells, [14C]glycine 5 μM, 3 hour incubation; read-out: GlyT-1 IC50
T1 construct: JAR cells (ATCC#HTB-144), which endogenously express GlyT-1; host or cells: JAR human choriocarcinoma cells
T1 sequence (P48067 1-706): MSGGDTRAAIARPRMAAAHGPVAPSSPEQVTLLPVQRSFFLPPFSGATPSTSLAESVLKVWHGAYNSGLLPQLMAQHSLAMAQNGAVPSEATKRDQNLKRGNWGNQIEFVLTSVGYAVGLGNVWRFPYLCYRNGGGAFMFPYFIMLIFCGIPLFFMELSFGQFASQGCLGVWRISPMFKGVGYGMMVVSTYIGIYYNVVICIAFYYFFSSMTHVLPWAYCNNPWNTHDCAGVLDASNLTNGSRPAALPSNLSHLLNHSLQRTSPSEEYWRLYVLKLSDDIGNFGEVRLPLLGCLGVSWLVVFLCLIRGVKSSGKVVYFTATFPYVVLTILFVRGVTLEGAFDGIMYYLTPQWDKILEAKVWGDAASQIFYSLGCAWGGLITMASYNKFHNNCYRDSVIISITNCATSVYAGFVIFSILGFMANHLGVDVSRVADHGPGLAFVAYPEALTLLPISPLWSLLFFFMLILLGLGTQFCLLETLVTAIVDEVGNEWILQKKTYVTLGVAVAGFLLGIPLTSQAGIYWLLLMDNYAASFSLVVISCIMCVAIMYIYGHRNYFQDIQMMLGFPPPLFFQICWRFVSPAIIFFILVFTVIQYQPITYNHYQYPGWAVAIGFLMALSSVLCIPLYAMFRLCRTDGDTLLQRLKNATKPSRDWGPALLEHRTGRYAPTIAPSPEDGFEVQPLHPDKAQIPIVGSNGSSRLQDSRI
In short: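 IC50 comes from a four-parameter fit of nine-point, duplicate curves measuring inhibition of 5 μM [14C]glycine uptake, read by scintillation proximity after 3 h at 37 °C. Cells are human JAR, which express GlyT-1 endogenously, given 10 min compound pre-treatment in pH 7.4 buffer with 5 mM alanine and 0.75% DMSO.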

[2] = molecular target: T2, glycine transporter-2 (GlyT-2) (Homo sapiens, UniProt Q9Y345); assay: [14C]glycine uptake assay in HEK-GlyT-2 transfected cells; format: cell-based; details: HEK-GlyT-2 cells
T2 construct: expressed in transfected cells
T2 sequence (Q9Y345 1-797): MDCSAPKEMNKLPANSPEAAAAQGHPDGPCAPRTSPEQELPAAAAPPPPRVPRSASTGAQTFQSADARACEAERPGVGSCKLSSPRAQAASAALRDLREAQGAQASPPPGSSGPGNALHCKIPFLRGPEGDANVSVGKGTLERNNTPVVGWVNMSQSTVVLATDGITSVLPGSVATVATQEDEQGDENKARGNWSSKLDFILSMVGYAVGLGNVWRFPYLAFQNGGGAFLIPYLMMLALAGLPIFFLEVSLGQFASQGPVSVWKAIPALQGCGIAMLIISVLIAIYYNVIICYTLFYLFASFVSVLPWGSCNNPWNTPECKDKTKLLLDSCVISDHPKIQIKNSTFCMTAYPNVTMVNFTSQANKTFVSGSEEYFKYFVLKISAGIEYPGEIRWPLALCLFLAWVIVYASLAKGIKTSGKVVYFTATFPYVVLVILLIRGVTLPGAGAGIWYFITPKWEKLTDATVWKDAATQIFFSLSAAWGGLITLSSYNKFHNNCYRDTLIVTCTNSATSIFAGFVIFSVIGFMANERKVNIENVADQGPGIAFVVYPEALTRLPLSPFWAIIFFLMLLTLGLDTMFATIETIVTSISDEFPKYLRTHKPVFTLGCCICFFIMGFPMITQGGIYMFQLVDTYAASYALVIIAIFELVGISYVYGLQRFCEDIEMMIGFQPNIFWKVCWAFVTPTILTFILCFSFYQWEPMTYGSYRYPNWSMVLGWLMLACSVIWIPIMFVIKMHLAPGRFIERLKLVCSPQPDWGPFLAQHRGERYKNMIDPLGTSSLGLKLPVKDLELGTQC

Row | SMILES | IC50 [1] [nM] | IC50 [2] [nM]
1 | Cn1cc(S(=O)(=O)N2CCN(C3(CNC(=O)c4ccc(F)cc4F)CCCC3)CC2)nn1 [compound 111, 2,4-Difluoro-N-((1-(4-(1-methyl-1H-1,2,3-triazol-4-ylsulfonyl)piperazin-1-yl)cyclopentyl)methyl) benzamide Hydrochloride] | 242 | > 75000
2 | CCCS(=O)(=O)N1CCN(C2(CNC(=O)c3ccc(C(F)(F)F)cc3Cl)CCC(F)(F)CC2)C(C)C1 (stereo not drawn) [compound 257, 2-Chloro-N-((4,4-difluoro-1-(2-methyl-4-(propylsulfonyl)piperazin-1-yl)cyclohexyl)methyl)-4-(trifluoromethyl) benzamide Hydrochloride] | 18 | > 75000
3 | CCCS(=O)(=O)N1CCN(C2(CNC(=O)c3cccc(C(F)(F)F)c3Cl)CCCCCC2)CC1 [compound 59, 2-Chloro-N-((1-(4-(propylsulfonyl)piperazin-1-yl)cycloheptyl)methyl)-3-(trifluoromethyl) benzamide Hydrochloride] | 128 | > 75000
4 | O=C(NCC1(N2CCN(S(=O)(=O)N3CCCC3)CC2)CCC(F)(F)CC1)c1ccc(C(F)(F)F)cc1Cl [compound 270, 2-Chloro-N-((4,4-difluoro-1-(4-(pyrrolidin-1-ylsulfonyl)piperazin-1-yl)cyclohexyl)methyl)-4-(trifluoromethyl)benzamide Hydrochloride] | 47 | > 75000
5 | Cc1cc(F)ccc1C(=O)NCC1(N2CCN(S(=O)(=O)CC3CC3)CC2)CCCCCC1 [compound 85, N-((1-(4-(Cyclopropylmethyl-sulfonyl)piperazin-1-yl)cycloheptyl)methyl)-4-fluoro-2-methylbenzamide Hydrochloride] | 182 | > 75000
6 | CCCS(=O)(=O)N1CCN(C2(CNC(=O)c3ccc(OC(F)(F)F)cc3)CCCCCC2)CC1 [compound 62, N-((1-(4-(Propylsulfonyl)piperazin-1-yl)cycloheptyl)methyl)-4-(trifluoromethoxy) benzamide Hydrochloride] | 81 | 3640
7 | CC1CN(C2(CNC(=O)c3c(F)cccc3F)CCCCC2)CCN1S(=O)(=O)CC1CC1 (stereo not drawn) [compound 117, N-((1-(4-(Cyclopropylmethyl-sulfonyl)-3-methylpiperazin-1-yl)cyclohexyl)methyl)-2,6-difluorobenzamide Hydrochloride] | 1070 | > 75000
8 | CCCS(=O)(=O)N1CCN(C2(CNC(=O)c3ccc(Cl)cc3C)CCCCC2)CC1 [compound 9, 4-Chloro-2-methyl-N-((1-(4-(propylsulfonyl)piperazin-1-yl)cyclohexyl)methyl) benzamide Hydrochloride] | 22 | > 75000

Molecules with a lower IC50 [1], results first:

Row | IC50 [1] [nM] | IC50 [2] [nM] | SMILES
9 | 3 | 69200 | Cn1cnc(S(=O)(=O)N2CCN(C3(CNC(=O)c4ccccc4C(F)(F)F)CCC(F)(F)CC3)CC2)c1 [compound 176, N-((4,4-Difluoro-1-(4-(1-methyl-1H-imidazol-4-ylsulfonyl)piperazin-1-yl)cyclohexyl)methyl)-2-(trifluoromethyl)benzamide Hydrochloride]
10 | 2 | > 75000 | Cn1cnc(S(=O)(=O)N2CCN(C3(CNC(=O)c4c(N)cccc4Cl)CCCCC3)CC2)c1 [compound 99, 2-Amino-6-chloro-N-((1-(4-(1-methyl-1H-imidazol-4-ylsulfonyl)piperazin-1-yl)cyclohexyl)methyl) benzamide Hydrochloride]
11 | 2 | > 75000 | Cn1cnc(S(=O)(=O)N2CCN(C3(CNC(=O)c4ccc(F)cc4Cl)CCCCC3)CC2)c1 [compound 101, 2-Chloro-4-fluoro-N-((1-(4-(1-methyl-1H-imidazol-4-ylsulfonyl)piperazin-1-yl)cyclohexyl)methyl) benzamide Hydrochloride]
12 | 16 | > 75000 | CCCS(=O)(=O)N1CCN(C2(CNC(=O)c3c(F)cc(F)cc3F)CCCCC2)CC1 [compound 48, 2,4,6-Trifluoro-N-((1-(4-(propylsulfonyl)piperazin-1-yl)cyclohexyl)methyl) benzamide Hydrochloride]
